Where two headings read alike, the source gives them in different places.
Assays:
bombesin receptors = experiment: Receptor autoradiography of human tumor tissue sections with the radioligand; assay type: binding
Experimental: Various tumor tissue samples, including surrounding tissue, were harvested from human patients and/or human cadavers, and frozen. The samples were cut on a cryostat, mounted on microscope slides, and then stored at −20° C. for […] improve adhesion of the tissue to the slide. The slide-mounted tissue sections were allowed to reach room temperature and preincubated in 50 mmol/1 Tris-HCl, 130 mmol/1 NaCl, 4.7 mmol/1 KCl, 5 mmol/I MgCl2, 1 mmol/l ethylene glycol-bi (b-aminoethylether)-N, N, N′, N′-tetraacetic acid, and 0.5% bovine serum albumin, pH 7.4 (preincubation solution), for 30 min. at 25° C. The slides are then incubated in a solution containing the same medium as the preincubation solution except the bovine serum albumin is omitted, and the following compounds are added: 20000 dpm/100 ml of the radioligand of Example 1, 0.025% bacitracin, 1 mmol/l dithiothreitol, 2 mg/ml chymostatin, and 4 mg/ml leupeptin, pH=6.5. The slides are incubated at room temperature with the radioligand for 150 min., as described by Mantyh et al. (Gasteroenterology, 1994, 107, 1019-30). After the incubation, the slides are rinsed with four washes of 30 sec each in ice-cold preincubation solution, pH 7.4, dipped in ice-cold water, and then quickly dried in a refrigerator under a stream of cold air. The sections are subsequently exposed to a ^3H Ultrofilm for 1 week, to detect the precise location of the radioactivity.
The films were evaluated to determine the ability to distinguish the tumor from the surrounding tissue.

in vivo = conditions: rat, total radioactivity
[1] = Dynamic gamma camera: clearance and excretion of radioactivity; conditions: rat, in vivo
[2] = system: bombesin receptor positive prolactinoma 7315b; conditions: female Lewis rats; visualized by scintigraphy
[3] = rats
[4] = rats; cited from earlier work
7315b cells = conditions: read-out: agonistic activities on bombesin stimulated prolactin secretion, IC50
[5] = for 2 h after labeling with IN-111 up to 100 Mbq per jj. g; HPLC
[6] = Breat Cancer Metastases, 5 samples
[7] = Non Small Cell Lung Carcinoma, 34 samples
[8] = Prostate Cancer Metastases, 5 samples
[9] = Small Cell Lung Carcinoma, 10 samples
[10] = Uterus Leomyosarcoma Tumor, 3 samples
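For Tissue RA, Pancreas in this document: radiolabelled ligand targeting bombesin receptors, given by intravenous injection at varied injected mass.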
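For ratio vs. blood, Adrenal in this document: radiolabelled ligand targeting bombesin receptors, given by intravenous injection at varied injected mass.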
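For ratio vs. blood, Colon in this document: radiolabelled ligand targeting bombesin receptors, given by intravenous injection at varied injected mass.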
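For uptake in pancreas and tissues of the GI tract in this document: radiolabelled ligand targeting bombesin receptors, given by intravenous injection at varied injected mass.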

In the case of “pGlu-Gln-Arg-Tyr-Gly-Asn-Gln-Trp-Ala-Val-Gly-His-Leu-Met-NH2 [[^125I-Tyr^4] bombesin]”, the “% Positive” value (bombesin receptors; Breast Cancer, 95 samples) is reported as 69%, the “Number Positive” value (bombesin receptors; Breast Cancer, 95 samples) is reported as 66 and the “% Positive” value (bombesin receptors; [6]) is reported as 100%. The “Number Positive” value (bombesin receptors; [6]) was 5, the “% Positive” value (bombesin receptors; Colon Cancer, 18 samples) was 6% and the “Number Positive” value (bombesin receptors; Colon Cancer, 18 samples) was 1. The “% Positive” value (bombesin receptors; Gastric Cancer, 27 samples) was 0%, the “Number Positive” value (bombesin receptors; Gastric Cancer, 27 samples) was 0 and the “% Positive” value (bombesin receptors; Gastrinomas, 4 samples) was 100%. For the same compound, the “Number Positive” value (bombesin receptors; Gastrinomas, 4 samples) was 4, the “% Positive” value (bombesin receptors; Glioblastomas, 4 samples) was 100% and the “Number Positive” value (bombesin receptors; Glioblastomas, 4 samples) was 4. The “% Positive” value (bombesin receptors; Melanomas, 8 samples) was 12%, the “Number Positive” value (bombesin receptors; Melanomas, 8 samples) was 1 and the “% Positive” value (bombesin receptors; [7]) was 0%. For the same compound, the “Number Positive” value (bombesin receptors; [7]) was 0, the “% Positive” value (bombesin receptors; Pancreatic Cancer, 28 samples) was 0% and the “Number Positive” value (bombesin receptors; Pancreatic Cancer, 28 samples) was 0. The “% Positive” value (bombesin receptors; [8]) was 100%, the “Number Positive” value (bombesin receptors; [8]) was 5 and the “% Positive” value (bombesin receptors; Prostate Cancer, 28 samples) was 100%. The “Number Positive” value (bombesin receptors; Prostate Cancer, 28 samples) was 28, the “% Positive” value (bombesin receptors; [9]) was 20% and the “Number Positive” value (bombesin receptors; [9]) was 2. The “% Positive” value (bombesin receptors; [10]) was 33% and the “Number Positive” value (bombesin receptors; [10]) was 1.
`CSCC[C@H](NC(=O)[C@H](CC(C)C)NC(=O)[C@H](Cc1c[nH]cn1)NC(=O)CNC(=O)[C@@H](NC(=O)[C@H](C)NC(=O)[C@H](Cc1c[nH]c2ccccc12)NC(=O)[C@H](CCC(N)=O)NC(=O)[C@H](CC(N)=O)NC(=O)CNC(=O)[C@H](Cc1ccc(O)cc1)NC(=O)[C@H](CCCNC(=N)N)NC(=O)[C@H](CCC(N)=O)NC(=O)[C@@H]1CCCN1C(=O)CN(CCN(CCN(CC(=O)O)CC(=O)O)CC(=O)O)CC(=O)O)C(C)C)C(N)=O` [[^111In-DTPA^0, Pro^1, Tyr^4] bombesin, metal not drawn] gave a tissue uptake at 48 h (in vivo; adrenal, 0.01 ug) of 0.029 %ID/g, a tissue uptake at 48 h (in vivo; adrenal, 0.025 ug) of 0.03 %ID/g and a tissue uptake at 48 h (in vivo; adrenal, 0.1 ug) of 0.022 %ID/g. The tissue uptake at 48 h (in vivo; adrenal, 0.5 ug) was 0.014 %ID/g, the tissue uptake at 48 h (in vivo; blood, 0.01 ug) was 0.0009 %ID/g and the tissue uptake at 48 h (in vivo; blood, 0.025 ug) was 0.001 %ID/g. It also gave a tissue uptake at 48 h (in vivo; blood, 0.5 ug) of 0.0008 %ID/g, a tissue uptake at 48 h (in vivo; blood, iv, 0.1 ug) of 0.0009 %ID/g and a tissue uptake at 48 h (in vivo; bombesin receptor positive tissues) of 0.025 %ID/g. The tissue uptake at 48 h (in vivo; colon, 0.01 ug) was 0.072 %ID/g, the tissue uptake at 48 h (in vivo; colon, 0.025 ug) was 0.063 %ID/g and the tissue uptake at 48 h (in vivo; colon, 0.1 ug) was 0.061 %ID/g. It also gave a tissue uptake at 48 h (in vivo; colon, 0.5 ug) of 0.036 %ID/g, a tissue uptake at 48 h (in vivo; pancreas, 0.025 ug) of 1.2 %ID/g and a tissue uptake at 48 h (in vivo; pancreas, 0.1 ug) of 0.72 %ID/g. It also gave a tissue uptake at 48 h (in vivo; pancreas, 0.5 ug) of 0.43 %ID/g, a tissue uptake at 48 h (in vivo; stomach, 0.01 ug) of 0.035 %ID/g and a tissue uptake at 48 h (in vivo; stomach, 0.025 ug) of 0.065 %ID/g. The tissue uptake at 48 h (in vivo; stomach, 0.1 ug) was 0.042 %ID/g, the tissue uptake at 48 h (in vivo; stomach, 0.5 ug) was 0.036 %ID/g and the total body retention [1] was 10%. For the same compound, the “uptake in bombesin receptor positive prolactinoma 7315b” value [2] was “Specific uptake”, the “uptake in pancreas and tissues of the GI tract” value [3] was “high and specific uptake” and the “Tissue RA, Pancreas” value ([3]; 48 h after injection, 0.01 μg) was 1.0 % ID/g. For the same compound, the “ratio vs. blood, Adrenal” value ([3]; 48 h after injection, 0.01 μg) was 34, the “ratio vs. blood, Colon” value ([3]; 48 h after injection, 0.01 μg) was 85 and the “ratio vs. blood, Pancreas” value ([3]; 48 h after injection, 0.01 μg) was 1210. The “ratio vs. blood, Stomach” value ([3]; 48 h after injection, 0.01 μg) was 40, the “ratio vs. blood, Adrenal” value ([3]; 48 h after injection, 0.025 μg) was 30 and the “ratio vs. blood, Colon” value ([3]; 48 h after injection, 0.025 μg) was 64. For the same compound, the “ratio vs. blood, Pancreas” value ([3]; 48 h after injection, 0.025 μg) was 1217, the “ratio vs. blood, Stomach” value ([3]; 48 h after injection, 0.025 μg) was 64 and the “ratio vs. blood, Adrenal” value ([3]; 48 h after injection, 0.1 μg) was 26. For the same compound, the “ratio vs. blood, Colon” value ([3]; 48 h after injection, 0.1 μg) was 73, the “ratio vs. blood, Pancreas” value ([3]; 48 h after injection, 0.1 μg) was 856 and the “ratio vs. blood, Stomach” value ([3]; 48 h after injection, 0.1 μg) was 50. For the same compound, the “ratio vs. blood, Adrenal” value ([3]; 48 h after injection, 0.5 μg) was 18, the “ratio vs. blood, Colon” value ([3]; 48 h after injection, 0.5 μg) was 52 and the “ratio vs. blood, Pancreas” value ([3]; 48 h after injection, 0.5 μg) was 574. The “ratio vs. blood, Stomach” value ([3]; 48 h after injection, 0.5 μg) was 50, the “uptake in the pancreas and tissues of the GI-tract” value [4] was “high and specific uptake” and the “clearance of radioactivity from the blood compartment” value (dynamic gamma camera) was “rapid clearance”. It also gave a urinary excretion (in 1 h) of 35%, a urinary excretion (in 20 h) of 70% and an IC50 (7315b cells) of 8 nM. The radiochemically stable [5] was greater than 95%.

From US6866837B2, “Radiolabeled peptides for the diagnosis and treatment of breast and prostate tumors and metastases of such tumors” (Mallinckrodt Inc., priority 1998, dated 2005)
